Data: PubChem BioAssay AID1259407 (Chemical Carcinogenesis Research Information System (CCRIS), 2018)
Calls of active or inactive are those of the source. No rule for the calls is given here.

Tested on: CCRIS mutagenicity, Ames/micronucleus/aberration tests
Experiment: CCRIS mutagenicity studies
[1] = Test System: AMES SALMONELLA TYPHIMURIUM, Strain/Indicator: TA98, Metabolic Activation: NONE, Method: PREINCUBATION
[2] = Test System: AMES SALMONELLA TYPHIMURIUM, Strain/Indicator: TA100, Metabolic Activation: NONE, Method: PREINCUBATION
[3] = Test System: MOUSE LYMPHOMA, Strain/Indicator: L5178Y (TK+/TK-), Metabolic Activation: NONE, Method: SUSPENSION/PLATE
[4] = Test System: AMES SALMONELLA TYPHIMURIUM, Strain/Indicator: TA97, Metabolic Activation: HAMSTER, LIVER, S-9, AROCLOR 1254 (10 OR 30%), Method: PREINCUBATION
[5] = Test System: AMES SALMONELLA TYPHIMURIUM, Strain/Indicator: TA97, Metabolic Activation: NONE, Method: PREINCUBATION
[6] = Test System: AMES SALMONELLA TYPHIMURIUM, Strain/Indicator: TA97, Metabolic Activation: RAT, LIVER, S-9, AROCLOR 1254 (10 OR 30%), Method: PREINCUBATION
[7] = Test System: AMES SALMONELLA TYPHIMURIUM, Strain/Indicator: TA98, Metabolic Activation: HAMSTER, LIVER, S-9, AROCLOR 1254 (10 OR 30%), Method: PREINCUBATION
[8] = Test System: AMES SALMONELLA TYPHIMURIUM, Strain/Indicator: TA98, Metabolic Activation: RAT, LIVER, S-9, AROCLOR 1254 (10 OR 30%), Method: PREINCUBATION
[9] = Test System: AMES SALMONELLA TYPHIMURIUM, Strain/Indicator: TA100, Metabolic Activation: HAMSTER, LIVER, S-9, AROCLOR 1254 (10 OR 30%), Method: PREINCUBATION
[10] = Test System: AMES SALMONELLA TYPHIMURIUM, Strain/Indicator: TA100, Metabolic Activation: RAT, LIVER, S-9, AROCLOR 1254 (10 OR 30%), Method: PREINCUBATION
[11] = Test System: AMES SALMONELLA TYPHIMURIUM, Strain/Indicator: TA1535, Metabolic Activation: NONE, Method: PREINCUBATION
[12] = Test System: AMES SALMONELLA TYPHIMURIUM, Strain/Indicator: TA1535, Metabolic Activation: RAT, LIVER, S-9, AROCLOR 1254 (10 OR 30%), Method: PREINCUBATION

Measured: mutagenic call

O=Cc1ccc(Cl)cc1
inactive: [1] inactive; negative | Test System: AMES SALMONELLA TYPHIMURIUM, Strain/Indicator: TA98, Metabolic Activation: RAT LIVER S-9, PCB, Method: PREINCUBATION inactive; negative | [2] inactive; negative | Test System: AMES SALMONELLA TYPHIMURIUM, Strain/Indicator: TA100, Metabolic Activation: RAT LIVER S-9, AROCLOR 1254, Method: PREINCUBATION inactive; negative | Test System: AMES SALMONELLA TYPHIMURIUM, Strain/Indicator: TA100, Metabolic Activation: RAT LIVER S-9, PCB, Method: PREINCUBATION inactive; negative | Test System: AMES SALMONELLA TYPHIMURIUM, Strain/Indicator: TA102, Metabolic Activation: NONE, Method: PREINCUBATION inactive; negative | Test System: AMES SALMONELLA TYPHIMURIUM, Strain/Indicator: TA102, Metabolic Activation: RAT LIVER S-9, AROCLOR 1254, Method: PREINCUBATION inactive; negative | Test System: AMES SALMONELLA TYPHIMURIUM, Strain/Indicator: TA104, Metabolic Activation: NONE, Method: PREINCUBATION inactive; negative | Test System: AMES SALMONELLA TYPHIMURIUM, Strain/Indicator: TA104, Metabolic Activation: RAT LIVER S-9, AROCLOR 1254, Method: PREINCUBATION inactive; negative | Test System: AMES SALMONELLA TYPHIMURIUM, Strain/Indicator: TA104, Metabolic Activation: RAT LIVER S-9, PCB, Method: PREINCUBATION inactive; negative | Test System: E. COLI, Strain/Indicator: WP2 UVRA, Metabolic Activation: NONE, Method: PREINCUBATION inactive; negative | Test System: E. COLI, Strain/Indicator: WP2 UVRA, Metabolic Activation: RAT LIVER S-9, PCB, Method: PREINCUBATION inactive; negative | [3] inactive; positive. reevaluation of results: negative | Test System: Mouse lymphoma, Strain/Indicator: L5178Y (tk+/tk-), Metabolic Activation: Rat, Liver, S-9, Aroclor 1254, Method: Suspension/plate inactive; negative

O=C1NC(=O)C(O)(O)C(=O)N1
inactive: End Point: IN VITRO CHROMOSOMAL ABERRATIONS, Test System: CHO CELLS, Metabolic Activation: NONE inactive; negative | End Point: IN VITRO CHROMOSOMAL ABERRATIONS, Test System: CHO CELLS, Metabolic Activation: RAT, LIVER, S-9, AROCLOR 1254 inactive; negative | [4] inactive; negative | [5] inactive; negative | [6] inactive; negative | [7] inactive; negative | [1] inactive; negative | [8] inactive; negative | [9] inactive; negative | [2] inactive; negative | [10] inactive; negative | Test System: AMES SALMONELLA TYPHIMURIUM, Strain/Indicator: TA1535, Metabolic Activation: HAMSTER, LIVER, S-9, AROCLOR 1254 (10%), Method: PREINCUBATION inactive; negative | Test System: AMES SALMONELLA TYPHIMURIUM, Strain/Indicator: TA1535, Metabolic Activation: HAMSTER, LIVER, S-9, AROCLOR 1254 (30%), Method: PREINCUBATION inactive; negative | [11] inactive; negative | [12] inactive; negative

CNC(=O)ON=CC(C)(C)SC
inactive: [4] inactive; negative | [5] inactive; negative | [6] inactive; negative | [7] inactive; negative | [1] inactive; negative | [8] inactive; negative | [9] inactive; negative | [2] inactive; negative | [10] inactive; negative | Test System: AMES SALMONELLA TYPHIMURIUM, Strain/Indicator: TA1535, Metabolic Activation: HAMSTER, LIVER, S-9, AROCLOR 1254 (10 OR 30%), Method: PREINCUBATION inactive; negative | [11] inactive; negative | [12] inactive; negative | Test System: AMES SALMONELLA TYPHIMURIUM, Strain/Indicator: TA1537, Metabolic Activation: HAMSTER, LIVER, S-9, AROCLOR 1254 (10 OR 30%), Method: PREINCUBATION inactive; negative | Test System: AMES SALMONELLA TYPHIMURIUM, Strain/Indicator: TA1537, Metabolic Activation: NONE, Method: PREINCUBATION inactive; negative | Test System: AMES SALMONELLA TYPHIMURIUM, Strain/Indicator: TA1537, Metabolic Activation: RAT, LIVER, S-9, AROCLOR 1254 (10 OR 30%), Method: PREINCUBATION inactive; negative | Test System: E. COLI, Strain/Indicator: WP2 UVRA, Metabolic Activation: HAMSTER, LIVER, S-9, AROCLOR 1254, Method: STANDARD PLATE inactive; negative | Test System: E. COLI, Strain/Indicator: WP2 UVRA, Metabolic Activation: HAMSTER, LIVER, S-9, Method: STANDARD PLATE inactive; negative | Test System: E. COLI, Strain/Indicator: WP2 UVRA, Metabolic Activation: MOUSE, LIVER, S-9, AROCLOR 1254, Method: STANDARD PLATE inactive; negative | Test System: E. COLI, Strain/Indicator: WP2 UVRA, Metabolic Activation: MOUSE, LIVER, S-9, Method: STANDARD PLATE inactive; negative | Test System: E. COLI, Strain/Indicator: WP2 UVRA, Metabolic Activation: NONE, Method: STANDARD PLATE inactive; negative | Test System: E. COLI, Strain/Indicator: WP2 UVRA, Metabolic Activation: RAT, LIVER, S-9, AROCLOR 1254, Method: STANDARD PLATE inactive; negative | Test System: E. COLI, Strain/Indicator: WP2 UVRA, Metabolic Activation: RAT, LIVER, S-9, Method: STANDARD PLATE inactive; negative
active: End Point: IN VIVO CHROMOSOMAL ABERRATIONS, Test System: BONE MARROW CELLS, Species: RAT, Strain/Sex: MALE, Route: ORAL (GAVAGE) active; positive (structural and ploidy changes) | End Point: IN VIVO MICRONUCLEUS, Test System: BONE MARROW POLYCHROMATIC ERYTHROCYTES, Species: RAT, Strain/Sex: MALE, Route: ORAL (GAVAGE) active; positive | [3] active; positive | Test System: MOUSE LYMPHOMA, Strain/Indicator: L5178Y (TK+/TK-), Metabolic Activation: RAT, LIVER, S-9, AROCLOR 1254, Method: SUSPENSION/PLATE active; positive | Test System: MOUSE LYMPHOMA, Strain/Indicator: L5178Y (TK+/TK-), Metabolic Activation: RAT, LIVER, S-9, Method: SUSPENSION/PLATE active; positive
